# Values quoted from earlier work in article PMC3350394, “Kinetic analysis and test-retest variability of the radioligand [^11C](R)-PK11195 binding to TSPO in the human brain - a PET study in control subjects” (EJNMMI Research, 2012).
# Assays:
# [1] = design: method as in PMID 19050880, PMID 16039131; conditions: cited from earlier work
# TSPO = test system: TSPO; design: method as in PMID 22008728; conditions: TSPO SNP Ala147Thr; cited from earlier work
# p-glycoprotein-ABCB1 = test system: p-glycoprotein-ABCB1; design: method as in PMID 19948230; conditions: cited from earlier work
smiles,measurement,setting,value
CC[C@@H](C)N([11CH3])C(=O)c1cc2ccccc2c(-c2ccccc2Cl)n1 [[^11C](R)-PK11195],log P,[1],1.4 to 3.4
same,sensitivity to TSPO genotype,TSPO,not sensitive to TSPO genotype
same,substrate for ABC transporter,p-glycoprotein-ABCB1,not a substrate
